According to ChEMBL document CHEMBL4354805, “Discovery of MK-8719, a Potent O-GlcNAcase Inhibitor as a Potential Treatment for Tauopathies” (J Med Chem, 2019):

Assays:
[1] = molecular target: T1, Nuclear receptor subfamily 1 group I member 2 (Homo sapiens, UniProt O75469); experiment: Activation of PXR (unknown origin) assessed as CYP3A4 induction
T1 sequence (O75469 whole entry): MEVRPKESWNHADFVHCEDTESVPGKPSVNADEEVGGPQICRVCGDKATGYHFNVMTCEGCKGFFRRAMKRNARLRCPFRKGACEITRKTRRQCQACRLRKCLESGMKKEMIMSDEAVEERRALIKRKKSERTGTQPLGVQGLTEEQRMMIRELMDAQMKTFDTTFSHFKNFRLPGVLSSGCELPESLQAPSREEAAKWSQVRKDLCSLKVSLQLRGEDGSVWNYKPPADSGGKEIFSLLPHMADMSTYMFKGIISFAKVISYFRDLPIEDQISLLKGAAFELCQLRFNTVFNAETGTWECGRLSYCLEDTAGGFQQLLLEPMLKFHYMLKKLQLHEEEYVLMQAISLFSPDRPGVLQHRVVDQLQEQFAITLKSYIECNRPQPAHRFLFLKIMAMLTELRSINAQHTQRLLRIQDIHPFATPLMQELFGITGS

Cytochrome P450 2D6 = Cytochrome P450 2D6 (Homo sapiens, UniProt P10635); experiment: Inhibition of CYP2D6 (unknown origin); format: ADME
Cytochrome P450 2C9 = Cytochrome P450 2C9 (Homo sapiens, UniProt P11712); experiment: Inhibition of CYP2C9 (unknown origin); format: ADME
[2] = Drug uptake in rat brain at 3 mg/kg, po measured after 8 hrs; format: ADME, organism-based; settings: in vivo
Protein O-GlcNAcase [3] = molecular target: T2, Protein O-GlcNAcase (Homo sapiens, UniProt O60502); experiment: Inhibition of recombinant human OGA
T2 sequence (O60502 whole entry): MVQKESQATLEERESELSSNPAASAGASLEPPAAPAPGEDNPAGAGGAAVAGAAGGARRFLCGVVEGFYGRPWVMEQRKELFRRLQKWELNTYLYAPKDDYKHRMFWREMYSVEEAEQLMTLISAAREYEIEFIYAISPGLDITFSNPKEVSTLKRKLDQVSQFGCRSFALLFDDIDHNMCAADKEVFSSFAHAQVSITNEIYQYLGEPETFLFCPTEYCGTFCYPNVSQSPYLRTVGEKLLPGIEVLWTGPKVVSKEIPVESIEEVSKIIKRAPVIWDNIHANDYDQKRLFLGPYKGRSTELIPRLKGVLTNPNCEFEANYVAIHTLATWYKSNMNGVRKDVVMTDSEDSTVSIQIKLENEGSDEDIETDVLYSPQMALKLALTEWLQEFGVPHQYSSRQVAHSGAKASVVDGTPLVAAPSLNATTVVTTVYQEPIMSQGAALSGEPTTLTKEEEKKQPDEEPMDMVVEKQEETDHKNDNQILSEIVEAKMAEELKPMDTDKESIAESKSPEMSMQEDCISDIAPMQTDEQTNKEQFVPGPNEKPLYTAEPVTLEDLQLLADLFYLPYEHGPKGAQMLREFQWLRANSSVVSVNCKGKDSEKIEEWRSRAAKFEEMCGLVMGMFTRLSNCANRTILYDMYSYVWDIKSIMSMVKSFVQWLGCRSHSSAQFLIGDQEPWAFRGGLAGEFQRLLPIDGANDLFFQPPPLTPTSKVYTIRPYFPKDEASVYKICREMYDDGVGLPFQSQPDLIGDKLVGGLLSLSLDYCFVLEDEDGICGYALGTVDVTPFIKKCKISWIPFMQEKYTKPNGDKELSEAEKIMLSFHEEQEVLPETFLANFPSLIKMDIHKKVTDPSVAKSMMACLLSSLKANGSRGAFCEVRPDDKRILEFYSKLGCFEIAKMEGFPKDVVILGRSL

[4] = AUCN in Wistar Han rat at 3 mg/kg, po; format: ADME, organism-based; settings: in vivo
[5] = Drug uptake in rat brain at 3 mg/kg, po measured after 24 hrs; format: ADME, organism-based; settings: in vivo
Rattus norvegicus [6] = experiment: Elevation of O-protein in rat brain at 3 mg/kg, po measured after 8 hrs relative to control; format: functional
[7] = Oral bioavailability in Wistar Han rat at 3 mg/kg; format: ADME, organism-based; settings: in vivo
Rattus norvegicus [8] = experiment: Elevation of O-protein in rat brain at 3 mg/kg, po measured after 24 hrs relative to control; format: functional
[9] = Fraction unbound in human plasma at 2.5 uM by equilibrium dialysis; format: ADME, cell-free
[10] = molecular target: Voltage-dependent L-type calcium channel subunit alpha-1C (Homo sapiens, UniProt Q13936); experiment: Inhibition of Cav1.2 (unknown origin)
Protein O-GlcNAcase [11] = molecular target: T3, Protein O-GlcNAcase (Rattus norvegicus, UniProt Q8VIJ5); experiment: Inhibition of OGA in rat PC12 cells assessed as OGlcNAcylated protein level incubated for 24 hrs by ELISA; format: cell-based
T3 sequence (Q8VIJ5 whole entry): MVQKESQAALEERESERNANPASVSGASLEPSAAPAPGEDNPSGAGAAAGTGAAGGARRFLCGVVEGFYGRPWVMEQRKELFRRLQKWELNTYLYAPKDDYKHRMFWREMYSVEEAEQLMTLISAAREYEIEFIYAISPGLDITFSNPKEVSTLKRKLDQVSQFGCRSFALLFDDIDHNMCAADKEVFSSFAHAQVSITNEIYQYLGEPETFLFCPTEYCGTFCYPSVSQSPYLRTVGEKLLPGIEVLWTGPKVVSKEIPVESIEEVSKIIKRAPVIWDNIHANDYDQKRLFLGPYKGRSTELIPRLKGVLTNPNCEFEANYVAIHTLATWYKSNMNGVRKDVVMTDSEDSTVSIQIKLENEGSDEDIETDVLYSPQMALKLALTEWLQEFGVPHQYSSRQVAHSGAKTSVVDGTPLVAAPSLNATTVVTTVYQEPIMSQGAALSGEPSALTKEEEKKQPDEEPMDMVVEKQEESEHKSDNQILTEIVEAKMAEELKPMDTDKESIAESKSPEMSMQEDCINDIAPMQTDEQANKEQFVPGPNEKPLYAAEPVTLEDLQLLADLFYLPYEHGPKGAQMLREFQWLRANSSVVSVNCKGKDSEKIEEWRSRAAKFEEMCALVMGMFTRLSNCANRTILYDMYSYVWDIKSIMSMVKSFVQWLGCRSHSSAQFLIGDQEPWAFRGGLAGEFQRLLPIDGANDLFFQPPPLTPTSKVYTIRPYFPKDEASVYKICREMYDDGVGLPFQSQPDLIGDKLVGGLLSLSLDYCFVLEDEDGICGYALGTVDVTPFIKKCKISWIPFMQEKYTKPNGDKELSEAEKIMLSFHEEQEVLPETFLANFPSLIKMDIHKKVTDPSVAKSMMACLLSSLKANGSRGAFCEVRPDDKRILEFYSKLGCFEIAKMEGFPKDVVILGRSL

MDR1 = experiment: Apparent permeability in pig LLC-PK1 cells transfected with MDR1; format: ADME, cell-based, Sus scrofa
[12] = Half life in Wistar Han rat at 2 mg/kg, iv; format: ADME, organism-based; settings: in vivo
[13] = molecular target: Voltage-gated inwardly rectifying potassium channel KCNH2 (Homo sapiens, UniProt Q12809); experiment: Displacement of MK-0499 from human ERG
[14] = Fraction unbound in Wistar Han rat plasma at 2.5 uM by equilibrium dialysis; format: ADME, cell-free
[15] = Volume of distribution at steady state in Wistar Han rat at 2 mg/kg, iv or 3 mg/kg, po; format: ADME, organism-based; settings: in vivo, read-out: Vdss
[16] = Ratio of drug uptake in rat brain to plasma at 3 mg/kg, po measured after 24 hrs; format: ADME, organism-based; settings: read-out: BPR
Cytochrome P450 3A4 = Cytochrome P450 3A4 (Homo sapiens, UniProt P08684); experiment: Inhibition of CYP3A4 (unknown origin); format: ADME
[17] = molecular target: Sodium channel protein type 5 subunit alpha (Homo sapiens, UniProt Q14524); experiment: Inhibition of Nav1.5 (unknown origin)
[18] = Ratio of drug uptake in rat brain to plasma at 3 mg/kg, po measured after 8 hrs; format: ADME, organism-based; settings: read-out: BPR
[19] = Clearance in Wistar Han rat at 2 mg/kg, iv; format: ADME, organism-based; settings: in vivo
[20] = AUC (0 to 24 hrs) in rat brain at 10 mg/kg, po measured upto 24 hrs; format: ADME, organism-based; set-up: dose 10 mg/kg, time < 24 hr, route oral; settings: in vivo
[21] = molecular target: T4, Beta-hexosaminidase subunit beta (Homo sapiens, UniProt P07686); experiment: Inhibition of human beta hexosaminidase assessed as inhibitory constant using 4-methylumbelliferyl N-acetyl-beta-D-glucosaminide dihydrate as substrate measured every 60 sec for 45 mins by fluorescence spectrophotometry
T4 sequence (P07686 whole entry): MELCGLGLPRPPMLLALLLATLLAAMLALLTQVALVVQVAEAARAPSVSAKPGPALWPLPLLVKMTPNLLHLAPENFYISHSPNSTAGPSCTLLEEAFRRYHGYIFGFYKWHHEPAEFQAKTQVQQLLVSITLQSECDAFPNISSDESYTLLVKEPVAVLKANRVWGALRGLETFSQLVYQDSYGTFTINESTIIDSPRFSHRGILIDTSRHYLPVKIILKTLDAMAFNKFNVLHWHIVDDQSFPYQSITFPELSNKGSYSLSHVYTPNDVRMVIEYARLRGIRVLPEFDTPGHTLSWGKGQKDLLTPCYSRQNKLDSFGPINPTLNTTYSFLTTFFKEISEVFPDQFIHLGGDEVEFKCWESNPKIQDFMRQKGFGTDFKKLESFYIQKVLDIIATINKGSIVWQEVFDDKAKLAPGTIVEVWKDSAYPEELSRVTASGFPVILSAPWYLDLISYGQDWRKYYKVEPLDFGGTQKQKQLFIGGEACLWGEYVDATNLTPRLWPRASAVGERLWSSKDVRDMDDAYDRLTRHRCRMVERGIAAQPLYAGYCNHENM

[22] = Tmax in rat brain at 10 mg/kg, po measured upto 24 hrs; format: ADME, organism-based
Rattus norvegicus [23] = experiment: Increase in O-protein AUC in rat brain at 10 mg/kg, po measured upto 24 hrs; format: ADME, organism-based; settings: in vivo
Rattus norvegicus [24] = experiment: Elevation of O-protein in rat brain at 10 mg/kg, po measured after 24 hrs; format: functional

Chain of Sodium channel protein type 5 subunit alpha (Q14524 whole entry): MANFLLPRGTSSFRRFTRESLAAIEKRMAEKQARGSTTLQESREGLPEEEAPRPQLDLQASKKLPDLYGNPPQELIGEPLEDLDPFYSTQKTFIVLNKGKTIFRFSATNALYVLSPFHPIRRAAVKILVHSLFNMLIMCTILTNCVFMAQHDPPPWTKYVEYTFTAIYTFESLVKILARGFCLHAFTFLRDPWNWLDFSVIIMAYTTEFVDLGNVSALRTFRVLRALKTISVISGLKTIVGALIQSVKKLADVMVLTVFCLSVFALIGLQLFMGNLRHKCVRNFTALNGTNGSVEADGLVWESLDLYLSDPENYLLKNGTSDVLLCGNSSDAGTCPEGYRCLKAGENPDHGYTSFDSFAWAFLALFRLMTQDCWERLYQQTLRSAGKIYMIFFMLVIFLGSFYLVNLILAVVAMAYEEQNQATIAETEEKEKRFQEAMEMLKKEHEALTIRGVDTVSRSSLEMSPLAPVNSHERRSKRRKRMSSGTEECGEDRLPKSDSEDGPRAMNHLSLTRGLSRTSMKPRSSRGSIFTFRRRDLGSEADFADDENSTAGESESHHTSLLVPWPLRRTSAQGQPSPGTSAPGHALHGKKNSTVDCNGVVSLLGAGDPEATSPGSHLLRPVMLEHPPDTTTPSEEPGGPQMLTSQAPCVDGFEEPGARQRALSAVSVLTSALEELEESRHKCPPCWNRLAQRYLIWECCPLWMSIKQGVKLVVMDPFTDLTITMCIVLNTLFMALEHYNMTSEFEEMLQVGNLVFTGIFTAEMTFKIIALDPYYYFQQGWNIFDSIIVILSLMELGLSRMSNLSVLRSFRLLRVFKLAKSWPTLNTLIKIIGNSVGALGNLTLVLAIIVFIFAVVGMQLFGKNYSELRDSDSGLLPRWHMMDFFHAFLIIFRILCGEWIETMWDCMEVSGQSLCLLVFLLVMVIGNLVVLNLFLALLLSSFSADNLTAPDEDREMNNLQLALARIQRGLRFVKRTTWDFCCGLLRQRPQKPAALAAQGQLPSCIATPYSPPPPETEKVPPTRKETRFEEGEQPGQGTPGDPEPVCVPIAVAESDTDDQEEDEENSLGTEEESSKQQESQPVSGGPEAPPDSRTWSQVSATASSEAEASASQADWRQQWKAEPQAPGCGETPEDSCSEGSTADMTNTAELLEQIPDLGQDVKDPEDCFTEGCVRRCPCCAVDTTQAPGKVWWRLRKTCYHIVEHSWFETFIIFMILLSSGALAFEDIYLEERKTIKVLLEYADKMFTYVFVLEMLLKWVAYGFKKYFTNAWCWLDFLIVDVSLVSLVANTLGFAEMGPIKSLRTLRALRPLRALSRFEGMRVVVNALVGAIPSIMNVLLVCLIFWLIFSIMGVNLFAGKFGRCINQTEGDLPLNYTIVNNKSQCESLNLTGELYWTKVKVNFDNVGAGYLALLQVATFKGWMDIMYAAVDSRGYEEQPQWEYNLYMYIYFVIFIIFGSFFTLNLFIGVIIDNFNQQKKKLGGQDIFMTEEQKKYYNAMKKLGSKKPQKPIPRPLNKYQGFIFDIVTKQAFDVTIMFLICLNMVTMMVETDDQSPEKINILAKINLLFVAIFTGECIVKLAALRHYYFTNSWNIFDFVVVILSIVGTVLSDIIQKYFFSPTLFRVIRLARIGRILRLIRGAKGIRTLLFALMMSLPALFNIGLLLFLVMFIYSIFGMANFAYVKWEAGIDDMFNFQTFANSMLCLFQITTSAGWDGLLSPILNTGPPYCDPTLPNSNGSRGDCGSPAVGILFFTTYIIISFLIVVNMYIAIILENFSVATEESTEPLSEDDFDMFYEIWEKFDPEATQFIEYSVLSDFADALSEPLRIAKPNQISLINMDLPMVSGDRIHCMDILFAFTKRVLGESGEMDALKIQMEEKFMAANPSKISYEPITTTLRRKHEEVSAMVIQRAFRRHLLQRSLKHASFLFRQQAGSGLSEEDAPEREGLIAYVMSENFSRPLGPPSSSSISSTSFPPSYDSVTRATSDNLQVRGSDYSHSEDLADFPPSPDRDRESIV
Chain of Voltage-gated inwardly rectifying potassium channel KCNH2 (Q12809 whole entry): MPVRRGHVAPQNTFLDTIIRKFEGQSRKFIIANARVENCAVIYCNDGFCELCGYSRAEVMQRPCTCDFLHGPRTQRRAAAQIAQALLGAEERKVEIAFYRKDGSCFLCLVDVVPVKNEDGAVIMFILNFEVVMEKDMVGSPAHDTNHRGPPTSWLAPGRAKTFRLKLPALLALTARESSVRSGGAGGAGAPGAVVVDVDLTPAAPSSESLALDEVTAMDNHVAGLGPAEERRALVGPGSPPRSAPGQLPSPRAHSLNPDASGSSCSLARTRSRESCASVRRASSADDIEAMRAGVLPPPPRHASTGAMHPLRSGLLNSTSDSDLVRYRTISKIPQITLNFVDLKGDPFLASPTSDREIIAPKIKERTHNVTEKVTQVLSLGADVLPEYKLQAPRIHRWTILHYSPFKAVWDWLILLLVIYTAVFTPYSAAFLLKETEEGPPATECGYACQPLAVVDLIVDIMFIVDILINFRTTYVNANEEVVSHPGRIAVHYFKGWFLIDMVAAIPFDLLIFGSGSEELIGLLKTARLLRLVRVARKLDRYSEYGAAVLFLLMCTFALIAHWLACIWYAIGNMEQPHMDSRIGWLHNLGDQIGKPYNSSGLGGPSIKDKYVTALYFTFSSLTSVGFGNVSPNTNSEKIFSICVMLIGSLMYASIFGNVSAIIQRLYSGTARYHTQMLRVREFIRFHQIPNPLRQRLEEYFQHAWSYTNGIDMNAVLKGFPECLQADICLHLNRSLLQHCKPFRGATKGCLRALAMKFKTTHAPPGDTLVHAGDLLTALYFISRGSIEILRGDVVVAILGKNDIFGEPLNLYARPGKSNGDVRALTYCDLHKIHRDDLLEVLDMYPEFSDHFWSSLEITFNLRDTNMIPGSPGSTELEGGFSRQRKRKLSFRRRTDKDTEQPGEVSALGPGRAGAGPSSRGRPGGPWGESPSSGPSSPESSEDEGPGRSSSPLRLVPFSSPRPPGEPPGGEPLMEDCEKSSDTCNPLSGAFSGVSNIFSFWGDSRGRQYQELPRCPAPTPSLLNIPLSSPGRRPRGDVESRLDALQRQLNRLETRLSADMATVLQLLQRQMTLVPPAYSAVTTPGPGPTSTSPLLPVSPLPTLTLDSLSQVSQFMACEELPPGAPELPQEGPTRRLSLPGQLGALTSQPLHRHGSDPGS
Chain of Cytochrome P450 3A4 (P08684 whole entry): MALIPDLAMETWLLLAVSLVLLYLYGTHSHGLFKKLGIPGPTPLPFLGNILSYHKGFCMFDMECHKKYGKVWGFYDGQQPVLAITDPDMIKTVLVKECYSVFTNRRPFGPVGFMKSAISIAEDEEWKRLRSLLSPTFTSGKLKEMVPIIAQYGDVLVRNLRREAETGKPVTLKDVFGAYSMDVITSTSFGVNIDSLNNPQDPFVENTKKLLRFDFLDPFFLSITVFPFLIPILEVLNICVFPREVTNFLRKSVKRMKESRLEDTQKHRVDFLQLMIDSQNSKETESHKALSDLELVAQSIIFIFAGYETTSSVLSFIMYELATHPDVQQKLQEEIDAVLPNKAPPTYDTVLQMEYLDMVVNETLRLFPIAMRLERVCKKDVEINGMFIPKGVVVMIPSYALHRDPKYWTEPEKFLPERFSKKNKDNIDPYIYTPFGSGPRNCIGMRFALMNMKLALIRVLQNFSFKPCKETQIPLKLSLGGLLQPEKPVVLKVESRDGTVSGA
Chain of Cytochrome P450 2C9 (P11712 whole entry): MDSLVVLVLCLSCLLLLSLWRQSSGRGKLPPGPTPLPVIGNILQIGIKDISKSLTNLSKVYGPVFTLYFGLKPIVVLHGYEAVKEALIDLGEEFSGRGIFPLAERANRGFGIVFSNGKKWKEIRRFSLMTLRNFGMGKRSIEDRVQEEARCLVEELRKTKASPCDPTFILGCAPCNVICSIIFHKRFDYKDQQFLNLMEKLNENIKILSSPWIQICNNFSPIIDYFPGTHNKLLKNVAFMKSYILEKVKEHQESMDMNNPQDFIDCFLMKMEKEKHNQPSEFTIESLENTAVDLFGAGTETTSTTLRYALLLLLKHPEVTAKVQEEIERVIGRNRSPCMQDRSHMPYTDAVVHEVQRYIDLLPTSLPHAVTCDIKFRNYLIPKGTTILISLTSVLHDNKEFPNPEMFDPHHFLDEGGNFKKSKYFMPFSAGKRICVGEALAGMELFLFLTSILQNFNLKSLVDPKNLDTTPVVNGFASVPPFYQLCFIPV
Chain of Cytochrome P450 2D6 (P10635 whole entry): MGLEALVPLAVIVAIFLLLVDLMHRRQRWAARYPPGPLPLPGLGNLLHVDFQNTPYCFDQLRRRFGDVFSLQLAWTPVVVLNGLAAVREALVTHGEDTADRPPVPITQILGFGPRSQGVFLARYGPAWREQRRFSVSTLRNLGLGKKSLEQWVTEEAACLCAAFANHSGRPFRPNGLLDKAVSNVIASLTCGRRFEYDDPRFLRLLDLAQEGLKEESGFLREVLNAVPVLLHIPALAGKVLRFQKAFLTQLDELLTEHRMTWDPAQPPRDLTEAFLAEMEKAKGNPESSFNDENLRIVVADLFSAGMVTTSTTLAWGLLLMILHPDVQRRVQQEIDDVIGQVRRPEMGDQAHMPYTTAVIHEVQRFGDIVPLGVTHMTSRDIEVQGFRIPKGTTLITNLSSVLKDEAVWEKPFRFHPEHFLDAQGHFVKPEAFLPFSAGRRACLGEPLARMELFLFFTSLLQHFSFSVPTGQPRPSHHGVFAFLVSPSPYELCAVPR

| Compound | Drug uptake [2] | Ki (Protein O-GlcNAcase [3]) | AUC/dose [4] | Drug uptake [5] | fold change (FC) (Rattus norvegicus [6]) | bioavailability [7] | fold change (FC) (Rattus norvegicus [8]) | fraction unbound at 2.5 µM [9] | EC50 (Protein O-GlcNAcase [11]) | Papp (MDR1) | half-life [12] | fraction unbound at 2.5 µM [14] | Vd [15] | Kp at 8 h [18] | clearance [19] | AUC [20] | Ki [21] | Tmax [22] | fold change (FC) (Rattus norvegicus [23]) | fold change (FC) (Rattus norvegicus [24]) | further results |
| --- | --- | --- | --- | --- | --- | --- | --- | --- | --- | --- | --- | --- | --- | --- | --- | --- | --- | --- | --- | --- | --- |
| CCNC1=N[C@@H]2[C@@H](O)[C@H](O)[C@@H](CF)O[C@@H]2S1 | 0.228 nmol/g | 20 nM | 1.77 µM·kg·h/mg | 0.047 nmol/g | 1.84 | 102% | 1.74 | 0.87 | 176 nM | 6.1 ×10⁻⁶ cm/s | 2.39 h | 0.98 | 3.8 L/kg | 1.49 | 37.4 mL/min/kg | – | – | – | – | – | EC50 [1]: > 30000 nM; IC50 (Cytochrome P450 2D6): > 50000 nM; IC50 (Cytochrome P450 2C9): > 50000 nM; IC50 [10]: > 30000 nM; IC50 [13]: > 30000 nM; Kp at 24 h [16]: ≥ 18.7; IC50 (Cytochrome P450 3A4): > 50000 nM; IC50 [17]: > 30000 nM |
| CNC1=N[C@@H]2C[C@H](O)[C@@H](C(F)F)O[C@@H]2S1 | 0.289 nmol/g | – | 1.9 µM·kg·h/mg | – | 1.8 | 74.7% | – | > 0.99 | – | 24 ×10⁻⁶ cm/s | 1.66 h | 0.88 | 2.23 L/kg | 2.22 | 30.4 mL/min/kg | 53.87 nM·h/g | > 10000 nM | 8 h | 19.68 | 2.69 | – |
| CNC1=N[C@@H]2[C@H](F)[C@H](O)[C@@H](C(F)F)O[C@@H]2S1 | 0.142 nmol/g | 23 nM | 4.27 µM·kg·h/mg | – | 2.51 | 90.4% | – | 0.97 | 58.2 nM | 20 ×10⁻⁶ cm/s | 4.29 h | 0.93 | 2.96 L/kg | 0.189 | 11.4 mL/min/kg | 35.91 nM·h/g | > 10000 nM | 8 h | 11.69 | 2.04 | – |
| CN(C)C1=N[C@@H]2[C@@H](O)[C@H](O)[C@@H](C(F)F)O[C@@H]2S1 | 0.147 nmol/g | 2.4 nM | 0.43 µM·kg·h/mg | 0.049 nmol/g | 2.53 | 49.7% | 2.57 | > 0.99 | 31.2 nM | 14 ×10⁻⁶ cm/s | 3.81 h | 0.95 | 10.3 L/kg | 1.56 | 70.5 mL/min/kg | 4.89 nM·h/g | 3900 nM | 12 h | 34.18 | 2.83 | Kp at 24 h [16]: 3.03 |
